Assay results taken from PubChem BioAssay (NCI).
Where “and” joins values, the source holds several entries; their conditions need not be identical. Equal entries are not always repeated.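 Cultured in 96-well plates, cells were exposed to test compound for 48 hours across five concentrations. GI50 = concentration required for 50% inhibition of growth. TGI is the concentration that stops growth completely.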

Tests used:
Test in all cases: inhibition of tumour cell growth, NCI panel, 48 h
CCRF-CEM leukemia = system: CCRF-CEM leukemia
M14 melanoma = system: M14 melanoma
MDA-MB-435 = system: MDA-MB-435
PC-3 prostate = system: PC-3 prostate
SF-295 CNS = system: SF-295 CNS
SK-MEL-2 melanoma = system: SK-MEL-2 melanoma
SN12C renal = system: SN12C renal
TK-10 renal = system: TK-10 renal
A549 NSCLC = system: A549 NSCLC
MOLT-4 leukemia = system: MOLT-4 leukemia

Row | Structure (SMILES) | GI50 (CCRF-CEM leukemia) [µM] | TGI (CCRF-CEM leukemia) | GI50 (M14 melanoma) [µM] | TGI (M14 melanoma) [µM] | GI50 (MDA-MB-435) | TGI (MDA-MB-435) [µM] | GI50 (PC-3 prostate) [µM] | TGI (PC-3 prostate) [µM] | GI50 (SF-295 CNS) [µM] | TGI (SF-295 CNS) | GI50 (SK-MEL-2 melanoma) [µM] | TGI (SK-MEL-2 melanoma) | GI50 (SN12C renal) [µM] | TGI (SN12C renal) | GI50 (TK-10 renal) [µM] | TGI (TK-10 renal) | GI50 (A549 NSCLC) | TGI (A549 NSCLC) [µM] | GI50 (MOLT-4 leukemia) [µM] | TGI (MOLT-4 leukemia)
1 | O=c1c2cc(F)ccc2sc2c(N3CCNCC3)nc3ccc(F)cc3c12 | 2.06 | 5.24 µM | 1.94 | 3.66 | 1.74 µM | 3.2 | 1.7 | 3.3 | 1.78 | 3.22 µM | 1.84 | 3.53 µM | 1.58 | 3.05 µM | 1.94 | 3.47 µM | – | – | – | –
2 | [C](#Cc1ccccc1)[Hg][C]#Cc1ccccc1 | 8.93 | > 100 µM | 75.1 | > 100 | 43.2 µM | > 100 | 30.6 | 87.5 | > 100 | > 100 µM | 37.7 | > 100 µM | 30.1 | 73.3 µM | 23.8 | 50.7 µM | 50.1 µM | > 100 | 34.3 | > 100 µM
3 | FC(F)(c1ccc2ncccc2c1)c1nnc2ccc(-c3ccncc3)nn12 | > 100 | > 100 µM | > 100 | > 100 | > 100 µM | > 100 | 74.6 | > 100 | 2.21 | > 100 µM | > 100 | > 100 µM | 37.1 | > 100 µM | 73.1 | > 100 µM | 76.8 µM | > 100 | 38.4 | > 100 µM
4 | CCOC(=O)Nc1nc2ccc(OC)cc2s1 | > 100 | > 100 µM | > 100 | > 100 | 4.18 µM | > 100 | > 100 | > 100 | > 100 | > 100 µM | > 100 | > 100 µM | > 100 | > 100 µM | > 100 | > 100 µM | > 100 µM | > 100 | > 100 | > 100 µM
5 | COc1cc2ncn(-c3cc(OCc4ccccc4C(F)(F)F)c(C(=O)N(C)C)s3)c2cc1OC | > 22.1 | > 25 µM | > 25 | > 25 | > 25 µM | > 25 | > 19 | > 25 | > 22.6 | > 25 µM | > 20.2 | > 25 µM | 24.6 | > 25 µM | > 22.6 | > 25 µM | 24.9 µM | > 25 | > 25 | > 25 µM
6 | O=[N+]([O-])c1cc(Cl)c2[nH]c3c(Cl)cc([N+](=O)[O-])cc3c2c1 | 0.391 | 24.1 µM | 0.458 | > 54.7 | 0.31 µM | – | 0.379 | > 100 | 0.229 | 1.99 µM | 0.347 | 2.19 µM | 0.296 | > 100 µM | 0.356 | 19.1 µM | 0.302 µM | 2.9 | 0.329 | > 100 µM
7 | COc1cccc(/C(C#N)=C/c2nc3c(N4CCOCC4)nc(Cl)nc3n2C)c1 | 0.318 | 0.934 µM | 1.06 | 2.38 | 1.25 µM | 2.61 | 1.06 | 2.98 | 2.47 | 7.88 µM | 1.4 | 2.81 µM | 1.1 | 2.45 µM | – | – | 1.57 µM | 4.23 | 1.27 | 4.79 µM
8 | Cc1[nH]nc(C(F)(F)F)c1N=NN(C)C | – | 16 µM | – | 29.7 | – | 32.7 | – | 25.1 | – | 25.7 µM | – | 35.5 µM | – | 30.1 µM | – | 22.9 µM | – | > 100 | – | 5.02 µM
9 | CC1CCC2(NC1)OC1CC3C4CC=C5CC(O)CCC5(C)C4CCC3(C)C1C2C (centres undefined) | – | 40 µM and 41.5 µM | – | > 100 | 48.7 µM and 16.6 µM | > 100 | – | > 100 | – | 92.7 µM and > 64.3 µM | – | > 100 µM and 45.4 µM | – | 50.8 µM and 38.4 µM | – | 47.9 µM and 44.7 µM | 42.4 µM and 20.3 µM | > 100 | – | 55.5 µM and 59.5 µM
10 | O=C(O)c1ccc(CI)cc1 | – | 26.9 µM | – | 41.3 | – | 54.9 | – | 30.3 | – | 21.6 µM | – | 48.7 µM | – | 34.7 µM | – | – | – | 33.8 | – | 40.7 µM
11 | Cc1nc(-c2ccccc2)n2nc(NCCCN3CCOCC3)ncc12 | > 25 | > 25 µM | 16.5 | > 25 | > 25 µM | > 25 | > 25 | > 25 | > 25 | > 25 µM | 10.5 | > 25 µM | > 25 | > 25 µM | 19.1 | > 25 µM | > 25 µM | > 25 | > 25 | > 25 µM
12 | CC(=O)Oc1ccc(C23c4ccccc4C2(OC(C)=O)c2cc(OC(C)=O)ccc23)cc1 (centres undefined) | 3.05 | 12.4 µM | 14 | 32.1 | 4.9 µM | 25.6 | 3 | 11.9 | 4.37 | 20.4 µM | 27.7 | 94.3 µM | 5.37 | 20.2 µM | 6.23 | > 100 µM | 17.6 µM | 70.2 | 7.27 | 72.2 µM
13 | COc1ccc(NC(=O)CSC2=C(Nc3cccc(Br)c3)C(=O)N(Cc3ccccc3)C2=O)cc1Cl | 1.72 | 29.6 µM | > 100 | > 100 | > 100 µM | > 100 | 8.82 | > 100 | > 100 | > 100 µM | > 100 | > 100 µM | > 100 | > 100 µM | 44.4 | > 100 µM | 62.4 µM | > 100 | 1.73 | > 100 µM
14 | CN(CCCCCl)P(=O)(OCCS(=O)(=O)CC(NC(=O)CCC(N)C(=O)O)C(=O)NC(C(=O)O)c1ccccc1)OCC1OC(n2ccc(N)nc2=O)C(F)(F)C1O (centres undefined) | 0.0897 | > 100 µM | 0.0369 | 0.435 | 0.178 µM | > 100 | 5.24 | > 100 | 0.334 | 2.71 µM | > 63.7 | > 100 µM | 0.59 | > 50.9 µM | 32.8 | > 100 µM | 0.125 µM | > 100 | 0.146 | > 70.1 µM
15 | NS(=O)(=O)c1ccc(-n2nc3c(c2-c2ccc(Cl)cc2)Cc2ccccc2-3)cc1 | 2.96 | 9.08 µM | 13.1 | 31.5 | 17.8 µM | 32.6 | 14 | 27.9 | 29.8 | 82.3 µM | 13.6 | 29.3 µM | 5.49 | 18.3 µM | 19.5 | 35.6 µM | 37.8 µM | > 100 | 5.51 | 23.1 µM
16 | C=CCn1c(C)nc2ccc(Nc3nc(Nc4ccc(F)cc4)nc4ccccc34)cc21 | 3.01 | 11.7 µM | 3.26 | 14.2 | 4 µM | 20.4 | 3.14 | 14.7 | 6.08 | 20.3 µM | 3.16 | 11.4 µM | 2.78 | 15.1 µM | 6.83 | 24.6 µM | 4.18 µM | 22.2 | 1.77 | 6.27 µM
17 | COc1ccc(-c2ccncc2)cc1C(N)=O | > 25 | > 25 µM | > 25 | > 25 | > 25 µM | > 25 | > 25 | > 25 | > 25 | > 25 µM | > 25 | > 25 µM | > 25 | > 25 µM | > 25 | > 25 µM | > 25 µM | > 25 | > 25 | > 25 µM
18 | CCC(O)c1ccc(Br)cc1NC(=O)c1cccc(Cl)c1 (centres undefined) | 20.5 | 58.9 µM | 21.3 | 52.3 | 16.9 µM | 35 | 12.5 | 53.4 | 15 | 35.1 µM | 28.1 | 82.4 µM | 24.4 | > 100 µM | 41.7 | > 100 µM | 19.5 µM | > 100 | 15.9 | 45.5 µM
19 | O=S(=O)(NC1=NCCN1C(=S)SN1CCn2c1nsc2=S)c1cccc2ccccc12 | 2.5 | > 100 µM | 24.6 | > 100 | 17.4 µM | 39.9 | 29.2 | > 100 | 18.4 | 71.1 µM | 17.5 | 44.1 µM | 17.2 | 37.6 µM | 21.4 | 64.8 µM | 35.2 µM | > 100 | 16.5 | 60.3 µM
20 | O=C(/C=C/C12c3ccccc3C(c3ccccc31)C1C(=O)NC(=O)C12)c1ccc(Cl)cc1Cl (centres undefined) | 1.89 | 7.23 µM | 1.83 | 3.54 | 1.98 µM | 4.06 | 1.55 | 3.08 | 1.78 | 3.63 µM | 1.9 | 3.62 µM | 1.77 | 3.29 µM | 1.9 | 3.5 µM | 2.23 µM | 6.03 | 1.77 | 5.58 µM
21 | CC(C)c1c(-c2ccccc2)nc2c(C#N)c[nH]n2c1=O | 28.5 | > 100 µM | 30.6 | > 100 | 31.1 µM | > 100 | 25.2 | > 73.5 | 28.7 | > 84 µM | 27.7 | 78.8 µM | 29.2 | > 100 µM | 29.1 | > 100 µM | 33.4 µM | > 100 | 32 | > 100 µM
22 | CC[n+]1oc(C(=O)c2ccc(Cl)cc2)c(-c2ccccc2)c1-c1ccccc1.[Cl][Fe]([Cl])([Cl])[Cl] | 14.8 | 39.4 µM | 52.5 | > 100 | 22.3 µM | 80.5 | 31.4 | > 100 | 53.1 | > 100 µM | 30.8 | 85.9 µM | 83.5 | > 100 µM | 33.4 | > 100 µM | 22.1 µM | 68 | 47.2 | > 100 µM
23 | COc1cc(F)c(F)c(Nc2ccc(I)cc2F)c1NS(=O)(=O)C1(C[C@H](O)CO)CC1 | > 9.26 | > 10 µM | 0.0242 | 1.59 | 0.0659 µM | > 10 | > 6.75 | > 10 | > 5.78 | > 10 µM | 0.0416 | > 2.01 µM | 1.9 | > 10 µM | 0.135 | > 10 µM | 0.628 µM | > 10 | > 6.02 | > 10 µM
24 | CCNc1cc(-c2cccc(OC(F)(F)F)c2)nc2ccc(N3CCCC3)cc12 | 2.04 | 8.69 µM | 1.64 | 3.28 | 1.56 µM | 3.05 | 1.48 | 4.31 | 1.82 | 3.6 µM | 1.81 | 3.54 µM | 1.7 | 3.97 µM | 2.58 | 8.09 µM | 2.68 µM | 10.5 | 2.08 | 7.08 µM
25 | OCc1ccc(N2CCc3cccc(F)c3C2)cc1Cl | 24.9 | 99.1 µM | 29.3 | > 78.7 | 19.5 µM | 51.8 | 16 | 47.9 | 0.246 | 18.1 µM | – | 30.5 µM | 14.6 | > 70.2 µM | – | – | 0.189 µM | 15.7 | 23 | 71 µM
26 | CCCCCCCCCCCCCCCCCC1=NC(C)(C)CN1CC(C)O (centres undefined) | 2.71 | 7.39 µM | 2.29 | 5.77 | 2.08 µM | 4.5 | 3.31 | 10.8 | 13 | 31.4 µM | 15.6 | 31 µM | 10.5 | 24.4 µM | 20.9 | 39 µM | 3 µM | 7.12 | – | –
